Source: the supplement of paper PMC11208160

Assay: recombinant UMI read abundance after kanamycin selection (control-corrected) (log10(CPM+1)); higher = more efficient recombination; extreme values may be limits of the assay; sequences stand for … in AGTGCAGAGAAAATCGGCCAGTTTTCTCTGCCTGCAGTCCGCATGCCGTGGGACCCCTTGGGTTCTAACCTGTTGCCTAGATTTATGCAGCGGACTGCCTTTCTCCCAAAGTGATAAACCGG…AGGTTGGTTTCACT; site = the 11-nt donor
Summary of the method: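 Counts of recombinant UMIs were reported as log10(CPM+1). Before that, they were converted to CPM, averaged over replicates and scaled using control-derived factors. They came from PCR across the donor–target junction after Escherichia coli carrying the pair library and target plasmid was plated on IPTG (0.07 mM) plus kanamycin, or unselected, in two replicates each.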
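Also: IS621 bridge recombinase in Escherichia coli cells against a fixed T5 target plasmid.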

| Sequence | recombinant UMI read abundance (log10) |
| --- | --- |
| CCTAGTACATGGACCGGTTTTCCCGGTAATCCGTATTTGGC (site CCTAATACTGC) | 0 |
| CCTAGTACATGGACCGGTTTTCCCGGTAATCCGTATTTGGC (site CCTACTACTGC) | 0 |
| CCTAGTACATGGACCGGTTTTCCCGGTAATCCGTATTTGGC (site CCTAGTACTGC) | 0 |
| CCTAGTACATGGACCGGTTTTCCCGGTAATCCGTATTTGGC (site CCTATTACTGC) | 0 |
| CCTAGTTCATGGACCGGTTTTCCCGGTAATCCGTATTTGAA (site CCTAGTTCTTT) | 0 |
| CCTATGTCATGGACCGGTTTTCCCGGTAATCCGTATTTGTC (site CCTATGTCTGA) | 0 |
| CCTCACTCATGGACCGGTTTTCCCGGTAATCCGTATTTGCA (site CCTCACTCTTG) | 0.399 |
| CCTCATACATGGACCGGTTTTCCCGGTAATCCGTATTTGGC (site CCTAATACTGC) | 0 |
| CCTCATACATGGACCGGTTTTCCCGGTAATCCGTATTTGGC (site CCTCATACTGC) | 0 |
| CCTCATACATGGACCGGTTTTCCCGGTAATCCGTATTTGGC (site CCTGATACTGC) | 0 |
| CCTCATACATGGACCGGTTTTCCCGGTAATCCGTATTTGGC (site CCTTATACTGC) | 0 |
| CCTCTCTCATGGACCGGTTTTCCCGGTAATCCGTATTTGTA (site CATCTCTCTTA) | 0.00925 |
| CCTCTCTCATGGACCGGTTTTCCCGGTAATCCGTATTTGTA (site CCTCTCTCTTA) | 0.53 |
| CCTCTCTCATGGACCGGTTTTCCCGGTAATCCGTATTTGTA (site CGTCTCTCTTA) | 0 |
| CCTCTCTCATGGACCGGTTTTCCCGGTAATCCGTATTTGTA (site CTTCTCTCTTA) | 0.0036 |
| CCTGACACATGGACCGGTTTTCCCGGTAATCCGTATTTGTC (site CCTGACACTGA) | 0 |
| CCTGCAGCATGGACCGGTTTTCCCGGTAATCCGTATTTGTG (site CCTGCAGCTCA) | 0.0206 |
| CCTGCCGCATGGACCGGTTTTCCCGGTAATCCGTATTTGCC (site CCTGCCGCTGG) | 0 |
| CCTGGTCCATGGACCGGTTTTCCCGGTAATCCGTATTTGCA (site CCAGGTCCTTG) | 0 |
| CCTGGTCCATGGACCGGTTTTCCCGGTAATCCGTATTTGCA (site CCCGGTCCTTG) | 0.00677 |
| CCTGGTCCATGGACCGGTTTTCCCGGTAATCCGTATTTGCA (site CCGGGTCCTTG) | 0 |
| CCTGGTCCATGGACCGGTTTTCCCGGTAATCCGTATTTGCA (site CCTGGTCCTTG) | 0 |
| CCTTAGGCATGGACCGGTTTTCCCGGTAATCCGTATTTGTT (site CCTTAGGCTAA) | 0.0132 |
| CCTTATACATGGACCGGTTTTCCCGGTAATCCGTATTTGGC (site CCTAATACTGC) | 0 |
| CCTTATACATGGACCGGTTTTCCCGGTAATCCGTATTTGGC (site CCTCATACTGC) | 0.021 |
| CCTTATACATGGACCGGTTTTCCCGGTAATCCGTATTTGGC (site CCTGATACTGC) | 0 |

| Sequence | recombinant UMI read abundance (log10) |
| --- | --- |
| CCTTATACATGGACCGGTTTTCCCGGTAATCCGTATTTGGC (site CCTTATACTGC) | 0 |
| CCTTGAACATGGACCGGTTTTCCCGGTAATCCGTATTTGCT (site CCTTGAACTAG) | 0 |
| CCTTGCCCATGGACCGGTTTTCCCGGTAATCCGTATTTGAT (site ACTTGCCCTAT) | 0.00442 |
| CCTTGCCCATGGACCGGTTTTCCCGGTAATCCGTATTTGAT (site CCTTGCCCTAT) | 0.00286 |
| CCTTGCCCATGGACCGGTTTTCCCGGTAATCCGTATTTGAT (site GCTTGCCCTAT) | 0.00408 |
| CCTTGCCCATGGACCGGTTTTCCCGGTAATCCGTATTTGAT (site TCTTGCCCTAT) | 0.00903 |
| CGAACATCATGGACCGGTTTTCCCGGTAATCCGTATTTGGA (site CGAACATCTTC) | 1.93 |
| CGAACGTCATGGACCGGTTTTCCCGGTAATCCGTATTTGCG (site CGAACGTCTCG) | 2.37 |
| CGAAGATCATGGACCGGTTTTCCCGGTAATCCGTATTTGCT (site CGAAGATCTAG) | 1.51 |
| CGAAGATCATGGACCGGTTTTCCCGGTAATCCGTATTTGCT (site CGATCATCTAG) | 0 |
| CGAAGGACATGGACCGGTTTTCCCGGTAATCCGTATTTGGT (site CGAAGGACTAC) | 1.65 |
| CGAAGTGCATGGACCGGTTTTCCCGGTAATCCGTATTTGCC (site CGAAGTGCTGG) | 0.751 |
| CGAAGTGCATGGACCGGTTTTCCCGGTAATCCGTATTTGTT (site CGAAGTGCTAA) | 2.57 |
| CGAATCCCATGGACCGGTTTTCCCGGTAATCCGTATTTGCA (site CGAATCCCTTG) | 1.55 |
| CGAATTACATGGACCGGTTTTCCCGGTAATCCGTATTTGGC (site CGAATTACTGC) | 1.14 |
| CGAATTCCATGGACCGGTTTTCCCGGTAATCCGTATTTGCG (site CGAATTCCTCG) | 0.935 |
| CGAATTCCATGGACCGGTTTTCCCGGTAATCCGTATTTGTT (site CGAATTCCTAA) | 0.99 |
| CGAATTCCATGGACCGGTTTTCCCGGTAATCCGTATTTGTT (site CGGAATCCTAA) | 0 |
| CGACACGCATGGACCGGTTTTCCCGGTAATCCGTATTTGTT (site CGACACGCTAA) | 2 |
| CGACCATCATGGACCGGTTTTCCCGGTAATCCGTATTTGGC (site CGACCATCTGC) | 3.07 |
| CGACCGTCATGGACCGGTTTTCCCGGTAATCCGTATTTGCA (site CGACCGTCTTG) | 3.11 |
| CGAGCAGCATGGACCGGTTTTCCCGGTAATCCGTATTTGCT (site CAAGCAGCTAG) | 1.13 |
| CGAGCAGCATGGACCGGTTTTCCCGGTAATCCGTATTTGCT (site CCAGCAGCTAG) | 0.0072 |
| CGAGCAGCATGGACCGGTTTTCCCGGTAATCCGTATTTGCT (site CGAGCAGCTAG) | 2.13 |
| CGAGCAGCATGGACCGGTTTTCCCGGTAATCCGTATTTGCT (site CGATCATCTAG) | 0 |
| CGAGCAGCATGGACCGGTTTTCCCGGTAATCCGTATTTGCT (site CTAGCAGCTAG) | 0.852 |
